Measurements taken from ChEMBL document CHEMBL1158151, “Cactus Alkaloids. XXXIX. A Glucotetrahydroiosquinoline From the Mexican Cactus, Pterocereus gaumeri” (1979).
Values after ≈ are worked out from the molar mass of the structure shown.

Assay: Cytotoxicity against human 9KB cells
Format: functional
Conditions: read-out: ED50 (the source's name)

## COc1cc2c(c(O)c1OC)CCN(C)C2CO (configuration not stated) [DEGLUCOPTEROCEREINE]
  EC50: 16 µg/mL (≈ 63.2 µM)

## COc1cc2c(c(O[C@@H]3O[C@H](CO)[C@@H](O)[C@H](O)[C@H]3O)c1OC)CCN(C)C2CO (some centres not stated) [PTEROCEREINE]
  EC50: > 100 µg/mL
